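Protocol summary: plate cells (96-well), add compound at 5 concentrations, incubate 48 h, interpolate endpoints linearly. The concentration for full growth arrest is given as TGI.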
Key:
Experiment in all cases: inhibition of tumour cell growth, NCI panel, 48 h
KM20L2 colon = test system: KM20L2 colon
DMS 114 small cell lung = test system: DMS 114 small cell lung
LXFL 529 NSCLC = test system: LXFL 529 NSCLC
DMS 273 small cell lung = test system: DMS 273 small cell lung
XF 498 CNS = test system: XF 498 CNS

Measured: TGI

Cn1nc(-c2ccccc2)c(N=[N+]=[N-])cc1=O
> 100 µM: KM20L2 colon | DMS 114 small cell lung | LXFL 529 NSCLC | DMS 273 small cell lung | XF 498 CNS

Reference: PubChem BioAssay (NCI)
